Target: Histone deacetylase 1 (Homo sapiens, UniProt Q13547)
Experiment: Inhibition Assay

Sequence of Histone deacetylase 1 (Q13547 whole entry): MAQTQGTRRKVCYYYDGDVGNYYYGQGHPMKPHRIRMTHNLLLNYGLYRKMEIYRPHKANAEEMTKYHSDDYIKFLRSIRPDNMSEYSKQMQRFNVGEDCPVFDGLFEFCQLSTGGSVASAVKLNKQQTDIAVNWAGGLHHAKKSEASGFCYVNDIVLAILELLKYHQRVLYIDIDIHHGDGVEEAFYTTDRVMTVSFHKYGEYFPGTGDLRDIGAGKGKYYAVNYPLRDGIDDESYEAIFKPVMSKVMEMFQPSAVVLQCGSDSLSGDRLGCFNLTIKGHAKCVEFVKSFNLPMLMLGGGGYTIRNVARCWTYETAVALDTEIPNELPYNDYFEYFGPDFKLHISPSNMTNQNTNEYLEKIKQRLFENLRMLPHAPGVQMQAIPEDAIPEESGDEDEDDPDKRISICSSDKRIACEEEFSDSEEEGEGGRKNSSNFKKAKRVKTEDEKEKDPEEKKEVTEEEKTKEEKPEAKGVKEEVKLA

| IC50 [nM] | Structure (SMILES) |
| --- | --- |
| 178 | Nc1ccc(F)cc1NC(=O)c1ccc(CNC(=O)c2cc3ccccc3o2)cc1 [US9040727, V-9] |
| 1010 | Nc1ccccc1NC(=O)c1ccc(CNC(=O)c2cc3cc(C(F)(F)F)ccc3[nH]2)cc1 [US9040727, V-20] |
| 212 | Nc1ccccc1NC(=O)c1ccc(CNC(=O)c2cc3ccccc3[nH]2)cc1 [US9040727, V-5] |
| 1610 | Nc1ccc(-c2cccs2)cc1NC(=O)c1ccc(CNC(=O)c2cc3ccccc3o2)cc1 [US9040727, V-10] |
| 732 | Nc1ccccc1NC(=O)c1ccc(CNC(=O)c2cc3ccccc3o2)cc1 [US9040727, V-8] |
| 330 | Nc1ccc(-c2ccco2)cc1NC(=O)c1ccc(CNC(=O)c2nc3ccccc3[nH]2)cc1 [US9040727, V-14] |

— BindingDB's records for patent US9040727 (Shanghai Institute of Pharmaceutical Industry, 2015)
